Measured values as given in ChEMBL document CHEMBL3885861, “Open TG-GATES”.

Species on record: Rattus norvegicus
Experiment: Open TG-GATES - Regimen: Daily Repeat
Format: toxicity, organism-based, Sprague-Dawley
Set-up: regimen Daily Repeat, gender Male, age 6 weeks
Conditions: in vivo, po, 300 mg/kg, route gavage, dose level Middle; for APTT / Bas / Eos / Fbg / Hb / Ht / Lym / MCH / MCHC / MCV / Mono / Neu / PT / Plat / RBC / Ret / WBC: tissue Blood; for KIDNEY_L / KIDNEY_R / KIDNEY_TOTAL: tissue Kidney; for LIVER: tissue Liver; for A/G / ALP / ALT / AST / BUN / CRE / Ca / Cl / DBIL / GLC / IP / K / LDH / Na / PL / RALB / TBIL / TC / TG / TP / gamma-GTP: tissue Plasma

O=C(N[C@H](CO)[C@H](O)c1ccc([N+](=O)[O-])cc1)C(Cl)Cl [CHLORAMPHENICOL] gave a TERMINAL_BW (72 h, time 3 day) of 251.2 g, an APTT (72 h, time 3 day) of 16.2 s and a Bas (72 h, time 3 day) of 0%. It also gave an Eos (72 h, time 3 day) of 1%, a Fbg (72 h, time 3 day) of 294.6 mg/dL and a Hb (72 h, time 3 day) of 13.3 g/dL. The Ht (72 h, time 3 day) was 40.8%, the Lym (72 h, time 3 day) was 83.4% and the MCH (72 h, time 3 day) was 21.2 pg. For the same compound, the MCHC (72 h, time 3 day) was 32.6%, the MCV (72 h, time 3 day) was 65.1 fL and the Mono (72 h, time 3 day) was 3.4%. For the same compound, the Neu (72 h, time 3 day) was 11.6%, the PT (72 h, time 3 day) was 14.4 s and the Plat (72 h, time 3 day) was 128.6 x10_4/uL. It also gave an RBC (72 h, time 3 day) of 627.6 x10_4/ul, a Ret (72 h, time 3 day) of 4.4% and a WBC (72 h, time 3 day) of 77.4 x10_2/uL. For the same compound, the KIDNEY_L (72 h, time 3 day) was 1.1 g, the KIDNEY_R (72 h, time 3 day) was 1.1 g and the KIDNEY_TOTAL (72 h, time 3 day) was 2.1 g. The LIVER (72 h, time 3 day) was 12.1 g, the A/G (72 h, time 3 day) was 0.9 and the ALP (72 h, time 3 day) was 1601.8 IU/L. For the same compound, the ALT (72 h, time 3 day) was 49.4 IU/L, the AST (72 h, time 3 day) was 72.8 IU/L and the BUN (72 h, time 3 day) was 16.6 mg/dL. It also gave a CRE (72 h, time 3 day) of 0.2 mg/dL, a Ca (72 h, time 3 day) of 10.9 mg/dL and a Cl (72 h, time 3 day) of 105.6 meq/L. For the same compound, the DBIL (72 h, time 3 day) was 0.01 mg/dL, the GLC (72 h, time 3 day) was 169.2 mg/dL and the IP (72 h, time 3 day) was 7.6 mg/dL. The K (72 h, time 3 day) was 4.2 meq/L, the LDH (72 h, time 3 day) was 84.2 IU/L and the Na (72 h, time 3 day) was 141.2 meq/L. For the same compound, the PL (72 h, time 3 day) was 150.4 mg/dL, the RALB (72 h, time 3 day) was 2.6 g/dL and the TBIL (72 h, time 3 day) was 0.052 mg/dL. It also gave a TC (72 h, time 3 day) of 88.4 mg/dL, a TG (72 h, time 3 day) of 66.6 mg/dL and a TP (72 h, time 3 day) of 5.6 g/dL. For the same compound, the gamma-GTP (72 h, time 3 day) was 1 IU/L, the TERMINAL_BW ([…], time 7 day) was 277.3 g and the TERMINAL_BW ([…], time 14 day) was 349.1 g. For the same compound, the TERMINAL_BW ([…], time 28 day) was 411.6 g, the APTT ([…], time 7 day) was 16.9 s and the Bas ([…], time 7 day) was 0%. The Eos ([…], time 7 day) was 1%, the Fbg ([…], time 7 day) was 324 mg/dL and the Hb ([…], time 7 day) was 13.7 g/dL. For the same compound, the Ht ([…], time 7 day) was 42.3%, the Lym ([…], time 7 day) was 78.2% and the MCH ([…], time 7 day) was 20.5 pg. It also gave an MCHC ([…], time 7 day) of 32.4%, an MCV ([…], time 7 day) of 63.3 fL and a Mono ([…], time 7 day) of 3.6%. For the same compound, the Neu ([…], time 7 day) was 17%, the PT ([…], time 7 day) was 14.5 s and the Plat ([…], time 7 day) was 120.6 x10_4/uL. It also gave an RBC ([…], time 7 day) of 668.6 x10_4/ul, a Ret ([…], time 7 day) of 4.8% and a WBC ([…], time 7 day) of 66.9 x10_2/uL. It also gave an APTT ([…], time 14 day) of 14.9 s, a Bas ([…], time 14 day) of 0% and an Eos ([…], time 14 day) of 1.4%. It also gave a Fbg ([…], time 14 day) of 307 mg/dL, a Hb ([…], time 14 day) of 14.2 g/dL and a Ht ([…], time 14 day) of 43.7%. For the same compound, the Lym ([…], time 14 day) was 84.8%, the MCH ([…], time 14 day) was 20.5 pg and the MCHC ([…], time 14 day) was 32.5%. For the same compound, the MCV ([…], time 14 day) was 63.1 fL, the Mono ([…], time 14 day) was 2.2% and the Neu ([…], time 14 day) was 11.4%. It also gave a PT ([…], time 14 day) of 14.8 s, a Plat ([…], time 14 day) of 123.5 x10_4/uL and an RBC ([…], time 14 day) of 692.8 x10_4/ul. The Ret ([…], time 14 day) was 4.7%, the WBC ([…], time 14 day) was 80 x10_2/uL and the APTT ([…], time 28 day) was 15.7 s. It also gave a Bas ([…], time 28 day) of 0%, an Eos ([…], time 28 day) of 1.2% and a Fbg ([…], time 28 day) of 296.2 mg/dL. For the same compound, the Hb ([…], time 28 day) was 15.1 g/dL, the Ht ([…], time 28 day) was 44.3% and the Lym ([…], time 28 day) was 86.8%. It also gave an MCH ([…], time 28 day) of 19.7 pg, an MCHC ([…], time 28 day) of 34.1% and an MCV ([…], time 28 day) of 57.8 fL. The Mono ([…], time 28 day) was 1%, the Neu ([…], time 28 day) was 10% and the PT ([…], time 28 day) was 14.7 s. The Plat ([…], time 28 day) was 110.4 x10_4/uL, the RBC ([…], time 28 day) was 768.8 x10_4/ul and the Ret ([…], time 28 day) was 2.1%. For the same compound, the WBC ([…], time 28 day) was 69.9 x10_2/uL, the KIDNEY_L ([…], time 7 day) was 1.2 g and the KIDNEY_R ([…], time 7 day) was 1.2 g. The KIDNEY_TOTAL ([…], time 7 day) was 2.4 g, the KIDNEY_L ([…], time 14 day) was 1.3 g and the KIDNEY_R ([…], time 14 day) was 1.3 g. The KIDNEY_TOTAL ([…], time 14 day) was 2.6 g, the KIDNEY_L ([…], time 28 day) was 1.6 g and the KIDNEY_R ([…], time 28 day) was 1.5 g. It also gave a KIDNEY_TOTAL ([…], time 28 day) of 3.1 g, an LIVER ([…], time 7 day) of 14 g and an LIVER ([…], time 14 day) of 16.9 g. The LIVER ([…], time 28 day) was 18.5 g, the A/G ([…], time 7 day) was 0.9 and the ALP ([…], time 7 day) was 1464.2 IU/L. The ALT ([…], time 7 day) was 56.8 IU/L, the AST ([…], time 7 day) was 72.8 IU/L and the BUN ([…], time 7 day) was 15 mg/dL. It also gave a CRE ([…], time 7 day) of 0.2 mg/dL, a Ca ([…], time 7 day) of 11.3 mg/dL and a Cl ([…], time 7 day) of 106 meq/L. For the same compound, the DBIL ([…], time 7 day) was 0.02 mg/dL, the GLC ([…], time 7 day) was 181.2 mg/dL and the IP ([…], time 7 day) was 7.9 mg/dL. For the same compound, the K ([…], time 7 day) was 4 meq/L, the LDH ([…], time 7 day) was 58.4 IU/L and the Na ([…], time 7 day) was 144.8 meq/L. The PL ([…], time 7 day) was 148.8 mg/dL, the RALB ([…], time 7 day) was 2.7 g/dL and the TBIL ([…], time 7 day) was 0.054 mg/dL. For the same compound, the TC ([…], time 7 day) was 74 mg/dL, the TG ([…], time 7 day) was 102.4 mg/dL and the TP ([…], time 7 day) was 5.7 g/dL. For the same compound, the gamma-GTP ([…], time 7 day) was 1 IU/L, the A/G ([…], time 14 day) was 0.8 and the ALP ([…], time 14 day) was 1504.6 IU/L. It also gave an ALT ([…], time 14 day) of 51.8 IU/L, an AST ([…], time 14 day) of 75.2 IU/L and a BUN ([…], time 14 day) of 17.4 mg/dL. The CRE ([…], time 14 day) was 0.2 mg/dL, the Ca ([…], time 14 day) was 11.3 mg/dL and the Cl ([…], time 14 day) was 105.2 meq/L. It also gave a DBIL ([…], time 14 day) of 0.024 mg/dL, a GLC ([…], time 14 day) of 198.2 mg/dL and an IP ([…], time 14 day) of 7.1 mg/dL. It also gave a K ([…], time 14 day) of 4 meq/L, an LDH ([…], time 14 day) of 66.8 IU/L and a Na ([…], time 14 day) of 144 meq/L. The PL ([…], time 14 day) was 137.6 mg/dL, the RALB ([…], time 14 day) was 2.6 g/dL and the TBIL ([…], time 14 day) was 0.052 mg/dL. It also gave a TC ([…], time 14 day) of 63.4 mg/dL, a TG ([…], time 14 day) of 93.6 mg/dL and a TP ([…], time 14 day) of 5.8 g/dL. The gamma-GTP ([…], time 14 day) was 1 IU/L, the A/G ([…], time 28 day) was 0.8 and the ALP ([…], time 28 day) was 1176.8 IU/L. It also gave an ALT ([…], time 28 day) of 43 IU/L, an AST ([…], time 28 day) of 63.8 IU/L and a BUN ([…], time 28 day) of 15 mg/dL. The CRE ([…], time 28 day) was 0.2 mg/dL, the Ca ([…], time 28 day) was 10.8 mg/dL and the Cl ([…], time 28 day) was 105 meq/L. The DBIL ([…], time 28 day) was 0.024 mg/dL, the GLC ([…], time 28 day) was 172.8 mg/dL and the IP ([…], time 28 day) was 6.5 mg/dL. The K ([…], time 28 day) was 3.5 meq/L, the LDH ([…], time 28 day) was 49.2 IU/L and the Na ([…], time 28 day) was 144.6 meq/L. For the same compound, the PL ([…], time 28 day) was 141 mg/dL, the RALB ([…], time 28 day) was 2.8 g/dL and the TBIL ([…], time 28 day) was 0.064 mg/dL. The TC ([…], time 28 day) was 68 mg/dL, the TG ([…], time 28 day) was 69.4 mg/dL and the TP ([…], time 28 day) was 6.1 g/dL. For the same compound, the gamma-GTP ([…], time 28 day) was 1.2 IU/L.
